Results on 20 compounds are retold here after PubChem BioAssay (NCI).

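All cell lines were grown in 96-well plates and treated with compound for 48 hours. Abbreviation: GI50, concentration required for 50% inhibition of growth. Definition used: TGI = concentration required for complete inhibition of growth.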 Bounds are passed on as bounds.

The test system of the first assay is HCT-116 colon. Description: growth of human tumour cells (NCI), 48 h.
With `CC(=O)[O-].CC(=O)[O-].CC(=O)[O-].CC(=O)[O-].[Mo+2].[Mo+2]`, the GI50 was greater than 100 µM and the TGI was greater than 100 µM.

Regarding `Cc1ccccc1Nc1nc2c(s1)C(=O)c1ccccc1C2=O`, the TGI was determined as 6.66 µM.

The compound `Cc1nnc(N/N=C(/C(=O)C(C#N)c2ccccc2)C(C#N)c2ccccc2)n1N` (stereo unspecified) registered a TGI greater than 55.7 µM.

As to `COc1c(Br)cc(Br)c(OC)c1-c1[nH]c(Br)c(Br)c1Br`, the TGI came out at 12.3 µM.

`OB1OCc2cc(/C=C/c3cccc(C(F)(F)F)c3)ccc21`: the GI50 was 0.89 µM and the TGI was determined as 11.8 µM.

Consider `CCOC(=O)c1ccc(N[C@@H]2c3cc4c(cc3C(C3=CC(=O)C(=O)C(OC)=C3)[C@H]3C(=O)OCC32)OCO4)cc1` (stereo partly specified), for which the TGI was determined as 18.7 µM.

Consider `CNC(SC)=C1C(=O)OC(C)(C)OC1=O`, for which the TGI was greater than 100 µM.

In the case of `Cn1c(/C(C#N)=C/c2ccc3ccccc3c2)cc2ccccc21`, the GI50 was 0.0774 µM and the TGI was greater than 100 µM.

The compound `CC(CC(=O)Nc1ccc(NC(=O)CC(C)N=NC(N)=S)cc1)N=NC(N)=S` (stereo unspecified) had a TGI greater than 100 µM.

For the compound `CC(C)c1ccccc1NC(=O)/C(Cl)=C1/Sc2ccccc2NC1=O`, the TGI was greater than 100 µM.

`O=C(O)CCC(NC(=S)S)C(=O)O.[Na+].[Zn+2]` (stereo unspecified): the GI50 is greater than 50 µM and the TGI is greater than 50 µM.

With `O=c1c(Cl)c(Cl)cnn1CCc1ccncc1`, the TGI amounted to 30.7 µM.

The next assay has as its system IGROV1 ovarian. The assay can be described thus: growth of human tumour cells (NCI), 48 h.
With `Cc1cc(Nc2nc(SCc3ccc(C(=O)Nc4ccc(F)cc4N)cc3)nn3cccc23)n[nH]1`, the GI50 is 0.558 µM and the TGI came to 62 µM.

For `COc1ccccc1-c1cc(=O)c2ccc(C)nc2[nH]1`, the TGI is greater than 100 µM.

In turn, `OC(c1ccc(Br)cc1)(c1cccs1)C1CC1` (stereo unspecified) displayed a TGI of 42.9 µM.

In the case of `COc1ccc(-c2nnc(N3CCN(C(=O)CN4CCN(c5ccc(OC)cc5)CC4)CC3)nc2-c2ccc(OC)cc2)cc1`, the GI50 is 6.7 µM and the TGI is greater than 78.6 µM.

`C[n+]1c2ccccc2cc2c(CNC(CCCN=C(N)N)C(=O)O)cccc21` (stereo unspecified): the GI50 is 4.09 µM and the TGI stood at 19.1 µM.

Regarding `Cc1cc2c(Br)cc(Br)c(O)c2nc1C(=O)c1ccccc1`, the TGI was greater than 100 µM.

Consider `Cn1cc(-c2csc(-c3cn(C)c4ccccc34)n2)c2cnccc21`, for which the GI50 was 1.61 µM and the TGI came out at 3.24 µM.

For the compound `COc1ccccc1/C=C/C(=O)/C=C/c1ccccc1O`, the GI50 is 0.344 µM and the TGI stood at 1.92 µM.

As to `CC(=O)[O-].CC(=O)[O-].CC(=O)[O-].CC(=O)[O-].[Mo+2].[Mo+2]`, the GI50 was greater than 100 µM and the TGI was greater than 100 µM.

As for `Cc1ccccc1Nc1nc2c(s1)C(=O)c1ccccc1C2=O`, the TGI came out at 26.4 µM.

Regarding `Cc1nnc(N/N=C(/C(=O)C(C#N)c2ccccc2)C(C#N)c2ccccc2)n1N` (stereo unspecified), the TGI was greater than 95.9 µM.

`COc1c(Br)cc(Br)c(OC)c1-c1[nH]c(Br)c(Br)c1Br` returned a TGI of 20.6 µM.

As to `OB1OCc2cc(/C=C/c3cccc(C(F)(F)F)c3)ccc21`, the GI50 is 1.88 µM and the TGI is 60.2 µM.

In turn, `CCOC(=O)c1ccc(N[C@@H]2c3cc4c(cc3C(C3=CC(=O)C(=O)C(OC)=C3)[C@H]3C(=O)OCC32)OCO4)cc1` (stereo partly specified) showed a TGI of 28.5 µM.

Regarding `CNC(SC)=C1C(=O)OC(C)(C)OC1=O`, the TGI is greater than 100 µM.

Take `Cn1c(/C(C#N)=C/c2ccc3ccccc3c2)cc2ccccc21`: the GI50 was 0.225 µM and the TGI is greater than 100 µM.

`CC(CC(=O)Nc1ccc(NC(=O)CC(C)N=NC(N)=S)cc1)N=NC(N)=S` (stereo unspecified) displayed a TGI greater than 100 µM.

In turn, `CC(C)c1ccccc1NC(=O)/C(Cl)=C1/Sc2ccccc2NC1=O` registered a TGI greater than 100 µM.

As for `O=C(O)CCC(NC(=S)S)C(=O)O.[Na+].[Zn+2]` (stereo unspecified), the GI50 is greater than 50 µM and the TGI is greater than 50 µM.

In turn, `O=c1c(Cl)c(Cl)cnn1CCc1ccncc1` had a TGI of 33.8 µM.

The test system of another assay is NCI-H23 lung. The assay can be described thus: growth of human tumour cells (NCI), 48 h.
Regarding `Cc1cc(Nc2nc(SCc3ccc(C(=O)Nc4ccc(F)cc4N)cc3)nn3cccc23)n[nH]1`, the GI50 is 0.603 µM and the TGI came out at 47.4 µM.

On to `COc1ccccc1-c1cc(=O)c2ccc(C)nc2[nH]1`, for which the TGI is greater than 100 µM.

In the case of `OC(c1ccc(Br)cc1)(c1cccs1)C1CC1` (stereo unspecified), the TGI came to 56.9 µM.

As for `COc1ccc(-c2nnc(N3CCN(C(=O)CN4CCN(c5ccc(OC)cc5)CC4)CC3)nc2-c2ccc(OC)cc2)cc1`, the GI50 was 9.73 µM and the TGI amounted to 33.4 µM.

On to `C[n+]1c2ccccc2cc2c(CNC(CCCN=C(N)N)C(=O)O)cccc21` (stereo unspecified), for which the GI50 is 4.19 µM and the TGI was 18.4 µM.

With `Cc1cc2c(Br)cc(Br)c(O)c2nc1C(=O)c1ccccc1`, the TGI came to 51.1 µM.

`Cn1cc(-c2csc(-c3cn(C)c4ccccc34)n2)c2cnccc21`: the GI50 is 1.64 µM and the TGI was determined as 3.44 µM.

As for `COc1ccccc1/C=C/C(=O)/C=C/c1ccccc1O`, the GI50 was 1.5 µM and the TGI is 4.1 µM.

Take `CC(=O)[O-].CC(=O)[O-].CC(=O)[O-].CC(=O)[O-].[Mo+2].[Mo+2]`: the GI50 was greater than 100 µM and the TGI is greater than 100 µM.

Consider `Cc1ccccc1Nc1nc2c(s1)C(=O)c1ccccc1C2=O`, for which the TGI amounted to 14.1 µM.

As for `Cc1nnc(N/N=C(/C(=O)C(C#N)c2ccccc2)C(C#N)c2ccccc2)n1N` (stereo unspecified), the TGI is 17.8 µM.

Compound `COc1c(Br)cc(Br)c(OC)c1-c1[nH]c(Br)c(Br)c1Br` displayed a TGI of 13.8 µM.

Regarding `OB1OCc2cc(/C=C/c3cccc(C(F)(F)F)c3)ccc21`, the GI50 was 0.625 µM and the TGI is 80.6 µM.

`CCOC(=O)c1ccc(N[C@@H]2c3cc4c(cc3C(C3=CC(=O)C(=O)C(OC)=C3)[C@H]3C(=O)OCC32)OCO4)cc1` (stereo partly specified) yielded a TGI of 4.21 µM.

In turn, `CNC(SC)=C1C(=O)OC(C)(C)OC1=O` gave a TGI greater than 100 µM.

Take `Cn1c(/C(C#N)=C/c2ccc3ccccc3c2)cc2ccccc21`: the GI50 was 0.392 µM and the TGI was greater than 100 µM.

Regarding `CC(CC(=O)Nc1ccc(NC(=O)CC(C)N=NC(N)=S)cc1)N=NC(N)=S` (stereo unspecified), the TGI is greater than 100 µM.

`CC(C)c1ccccc1NC(=O)/C(Cl)=C1/Sc2ccccc2NC1=O` showed a TGI of 70.8 µM.
